The values below come from patent US20020137706A1, “Regulated growth factor delivery for engineered peripheral nerve” (priority 2000, published 2002).

For data set [1], the system named is right sciatic nerve defect. The settings on record: rat, in vivo.
Method: Surgical Technique. Twenty-one Sprague Dawley (250 gms) rats with a right sciatic nerve defect were implanted with the 12 mm PLLA conduits. […] Briefly the animals were anesthetized and maintained by a 0.4 cc intramuscular injection of a premixed solution containing 64 mg/ml ketamine HCL (Keta-Sthetic™ Boehringer Ingelheim, St Joseph, Mo.), 3.6 mg/ml xylazine (Rompun™ Miles Inc., Shawnee Mission, Kans.), and 0.07 mg/ml atropine sulfate (Elkins-Sinn Inc., Cherry Hill, N.J.). The skin from the clipped lateral thigh was scrubbed in a routine fashion with antiseptic solution. The incision extended from the greater trochanter to the midcalf distally. The sciatic and posterior tibial nerves were exposed by a muscle splitting incision. […]
The medical and lateral gastrocnemius muscle was harvested at 6 and 16 weeks and weighed in order to assess nerve reinnervation. […] The difference in weight of the containers before and after muscle placement determined the muscle weight.
Histological Assessment. […] Images of the histological sections were digitized using a CCD camera and subsequently analyzed using standard image processing and analysis techniques. […] The number of axons were counted to give the number of axons/mm^2. The area of each axon was determined, summed together, and expressed as area axons/image area to give the nerve fiber density. […]
Data set [2] concerns PC-12 cells. Description: Bioactivity assay of released NGF, PC-12 differentiation. The settings on record: 4 days culture in supernatant of MurA-induced transfected hDFBs; p≦0.002. It counts as cell-based. The protocol: PC-12 cells were obtained from ATCC (CRL-1721). PC-12 cells were maintained in F12k supplemented with 15% horse serum (Sigma, St. Louis, Mo.), 2.5% FBS, and penicillin-streptomycin-glutamine mixture (Gibco). For the NGF bioactivity assay, PC-12 cells were seeded at 10^2 cells/750 μL in 12-well plates.
NGF Bioactivity. Bioactivity assay of released NGF was assessed using PC-12 cells with their differentiation as the endpoint. PC-12 cells were incubated with PC.12 culture media (control) or media supernatants from transfected hDFBs in the presence of MurA (i.e., media with released NGF). Briefly, hDFBs were cultured and exposed to 3 μM Muristerone for 3 days in 12-well plates.
The media, theoretically with containing NGF released from transfected hDFBs, was then removed and used to culture PC-12 cells in 12-well plates. After 4 days, random images were digitized of each well and the number of differentiated and undifferentiated Data are reported as fraction of PC-12 cells that were differentiated.

Take poly (L-Lactic acid) [PLLA conduits]: in data set [1], the inflammatory reaction result is recorded as “No severe inflammatory reaction could be identified” and the neuromas entry is given as “no neuromas were apparent clinically”.
As to “NGF secreted from hDFBs: nerve growth factor in media supernatants from transfected hDFBs in the presence of MurA”, in data set [2], the “PC-12 differentiation versus media alone” value was “markedly higher levels”.
